Test system: 409-B2 hiPSCs
Experiment: PGE efficiency with recombinant Cpf1 ribonucleoprotein electroporation
Assay type: cell-based, human
Excerpt: The recombinant A.s. Cpf1 and S.p. Cas9 protein and electroporation enhancer was ordered from IDT (Coralville, USA) and nucleofection was done using the manufacturer's protocol, except for the following alterations. […] Cells were counted using the Countess Automated Cell Counter (Invitrogen). […]
CRISPresso (Pinello et al. 2016) was used to analyse sequencing data from CRISPR genome editing experiments for percentage of wildtype, targeted nucleotide substitutions (TNS), indels and mix of TNS and indels. […] Sequencing data from colonies after single cell seeding (FIGS. 3B and C) was further analyzed by evaluating the actual read sequences using SAMtools. Clonal colonies were differentiated from mixed colonies using sequence read proportions. Colonies were counted as clones if the clear majority of reads consisted of a single sequence (homozygous) or of two sequences of similar read count (heterozygous). […]

## O=c1cc(N2CCOCC2)oc2c1ccc1ccccc12 [NU7026]
DMNT1
  PGE increase: 2.4 fold
HPRT
  PGE increase: 2.1 fold

From patent US12173309B2, “Compounds for increasing genome editing efficiency” (Max-Planck-Gesellschaft zur Förderung der Wissenschaften …, priority 2017, dated 2024)
